The conditions of data set [1]: cited from earlier work.
Data set [2] can be described thus: In vivo release test, DOX concentration in blood after subcutaneous administration. More on the design: species or system Male Sprague Dawley rats. The note with it: rat, 1 mg DOX in normal saline subcutaneously, ~20 mL blood in a rat. As for the experimental part: Male Sprague Dawley rats (8 weeks, average weight 250 g) were stabilized for 1 week with free access to food and water. Microcontainers loaded with DOX were subcutaneously administered into the rats at a level of 3.7 mg/Kg (10 mg microspheres containing 1 mg DOX were freshly dispersed in 0.5 mL of normal saline solution for each rat). […] The blood samples were separated by centrifugation at 2000 g at 4° C. for 10 min and the obtained plasma samples were then stored at −20° C. prior to analysis. Just before the DOX extraction, the plasma samples were thawed followed by adding 3 ml of 70% ethanol and 30% 0.45 M HCl aqueous solution by volume. The obtained suspensions were mixed for 30 s to form gels. These gels were first stored at 4° C. for 24 hours in dark, and then centrifuged at 10,000 g for 15 min. The supernatants were transferred into glass cuvettes and allowed to warm to room temperature for the determination of DOX concentration by a fluorescence spectrophotometer.

Counter-ions that a name gives are not always drawn.

For the compound `COc1cccc2c1C(=O)c1c(O)c3c(c(O)c1C2=O)C[C@@](O)(C(=O)CO)C[C@@H]3O[C@H]1C[C@H](N)[C@H](O)[C@H](C)O1` [Doxorubicin, doxorubicin], the “stability versus pH” value in data set [1] (pH of more than 6.5) is “unstable”. As for `COc1cccc2c1C(=O)c1c(O)c3c(c(O)c1C2=O)C[C@@](O)(C(=O)CO)C[C@@H]3O[C@H]1C[C@H](N)[C@H](O)[C@H](C)O1` [DOX, Doxorubicin hydrochloride], the “DOX concentration level that can be reached in blood” value in data set [2] is 50 µg/mL. In data set [1] (water), the solubility in water was 10000 µg/mL.
